In ChEMBL document CHEMBL4808171, “Structure-Activity Relationship Study and Biological Evaluation of 2-(Disubstituted phenyl)-indole-5-propanoic Acid Derivatives as GPR40 Full Agonists” (J Med Chem, 2021):
The source made the active and inactive calls. The rule behind the calls is not given here.

Assays:
[1] = target: T1, Free fatty acid receptor 1 (Homo sapiens, UniProt O14842); assay: Agonist activity at GPR40 (unknown origin) expressed in CHO cells co-expressing luc2P/SRE (Gq) assessed as firefly luciferase activity at 10 uM incubated for 24 hrs by Bright-Glo based serum response element (SRE) luciferase reporter assay; format: functional, cell-based; conditions: filed as positive allosteric modulator
[2] = target: T1, Free fatty acid receptor 1; assay: Agonist activity at GPR40 (unknown origin) expressed in CHO cells assessed as increase in cAMP level incubated for 30 mins by cAMP-Glo assay; format: functional, cell-based
[3] = Metabolic stability in human liver microsomes assessed as intrinsic clearance; format: ADME, Microsome; conditions: read-out: CLH
[4] = Cmax in CD-1 mouse at 90 mg/kg, po measured up to 8 hrs by LC-MS/MS analysis; format: ADME, organism-based; design: route oral, dose 90 mg/kg, time <=8; conditions: in vivo
[5] = Tlast in CD-1 mouse at 10 mg/kg, po measured up to 8 hrs by LC-MS/MS analysis; format: ADME, organism-based; conditions: in vivo
[6] = Clast in CD-1 mouse at 30 mg/kg, po measured up to 8 hrs by LC-MS/MS analysis; format: ADME, organism-based; conditions: in vivo, read-out: Clast
[7] = AUC (0 to t) in CD-1 mouse at 90 mg/kg, po measured up to 8 hrs by LC-MS/MS analysis; format: ADME, organism-based; design: route oral, dose 90 mg/kg, time <=8; conditions: in vivo
[8] = Solubility of the compound in FaSSIF at 27 degC measured after 24 hrs; format: physicochemical; conditions: simulated gi fluid
[9] = target: T2, Free fatty acid receptor 2 (Homo sapiens, UniProt O15552); assay: Agonist activity at FFAR2 (unknown origin); format: functional
T2 sequence (O15552 whole entry): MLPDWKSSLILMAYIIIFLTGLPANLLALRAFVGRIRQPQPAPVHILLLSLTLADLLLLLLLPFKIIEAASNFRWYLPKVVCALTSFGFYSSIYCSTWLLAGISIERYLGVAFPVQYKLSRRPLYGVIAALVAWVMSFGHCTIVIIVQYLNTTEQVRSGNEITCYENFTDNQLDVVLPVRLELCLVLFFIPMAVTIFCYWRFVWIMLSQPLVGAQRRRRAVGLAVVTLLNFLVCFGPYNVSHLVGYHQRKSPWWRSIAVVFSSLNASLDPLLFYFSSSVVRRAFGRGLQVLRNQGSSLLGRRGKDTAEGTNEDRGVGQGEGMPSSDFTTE

[10] = target: T3, Free fatty acid receptor 3 (Homo sapiens, UniProt O14843); assay: Agonist activity at FFAR3 (unknown origin); format: functional
T3 sequence (O14843 whole entry): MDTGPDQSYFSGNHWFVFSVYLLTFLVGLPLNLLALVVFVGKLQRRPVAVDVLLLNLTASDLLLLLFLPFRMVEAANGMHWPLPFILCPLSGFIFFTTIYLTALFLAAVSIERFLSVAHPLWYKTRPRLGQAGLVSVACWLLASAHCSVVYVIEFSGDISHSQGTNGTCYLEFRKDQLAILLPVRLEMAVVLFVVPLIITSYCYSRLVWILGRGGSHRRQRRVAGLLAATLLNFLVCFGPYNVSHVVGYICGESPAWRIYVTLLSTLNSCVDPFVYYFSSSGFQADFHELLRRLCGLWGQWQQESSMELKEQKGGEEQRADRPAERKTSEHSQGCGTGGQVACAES

[11] = target: T1, Free fatty acid receptor 1; assay: Agonist activity at GPR40 (unknown origin) expressed in CHO cells co-expressing luc2P/SRE assessed as induction of TAK875-induced firefly luciferase activity incubated for 24 hrs by Bright-Glo based serum response element (SRE) luciferase reporter assay; format: functional, cell-based; conditions: filed as positive allosteric modulator
Mus musculus [12] = assay: Antidiabetic activity in db/db mouse assessed as reduction in plasma glucose level at 30 mg/kg, po pretreated 1 hr before glucose challenge measured up to 120 mins by Oral glucose tolerance test; format: functional, organism-based
Mus musculus [13] = assay: Antidiabetic activity in C57BL/6J mouse assessed as increase in plasma GLP1 level at 30 mg/kg, po measured after 30 mins by ELISA relative control; format: functional, organism-based
Mus musculus [14] = assay: Antidiabetic activity in C57BL/6J mouse assessed as increase in plasma GLP1 level at 30 mg/kg, po measured after 30 mins in presence of KR-62436 by ELISA relative to KR-62436 treated control; format: functional; conditions: 0.5 h
[15] = target: T4, Peroxisome proliferator-activated receptor gamma (Homo sapiens) (UniProt P37231); assay: Agonist activity at human PPARgamma expressed in CHO cells assessed as increase in receptor transcriptional activity at 1 uM incubated for 24 hrs by dual luciferase reporter gene assay relative to rosiglitazone; format: cell-based
T4 sequence (whole entry): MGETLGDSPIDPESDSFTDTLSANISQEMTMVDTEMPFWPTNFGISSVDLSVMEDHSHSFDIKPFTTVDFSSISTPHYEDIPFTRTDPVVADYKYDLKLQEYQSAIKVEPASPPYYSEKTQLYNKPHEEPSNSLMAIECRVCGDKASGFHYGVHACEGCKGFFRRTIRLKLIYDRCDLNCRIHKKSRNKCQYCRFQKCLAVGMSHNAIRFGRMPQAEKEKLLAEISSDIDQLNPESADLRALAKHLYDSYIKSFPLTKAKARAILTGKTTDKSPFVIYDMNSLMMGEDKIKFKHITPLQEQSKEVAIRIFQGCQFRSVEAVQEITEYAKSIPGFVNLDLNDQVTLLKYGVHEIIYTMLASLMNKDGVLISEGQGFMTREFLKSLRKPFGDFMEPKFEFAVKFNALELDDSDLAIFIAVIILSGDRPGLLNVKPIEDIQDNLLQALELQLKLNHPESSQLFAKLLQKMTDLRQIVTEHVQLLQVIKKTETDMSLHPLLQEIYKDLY

[16] = target: Free fatty acid receptor 1 (Mus musculus) (UniProt Q76JU9); assay: Agonist activity at GPR40 in mouse MIN6 cells assessed as fold increase in 17 mM glucose-mediated insulin secretion at 1 to 10 uM incubated for 2 hrs by ELISA relative to control; format: functional, cell-based; conditions: filed as positive allosteric modulator, dose 1-10 µM
Free fatty acid receptor 1 (Mus musculus), sequence (Q76JU9 whole entry): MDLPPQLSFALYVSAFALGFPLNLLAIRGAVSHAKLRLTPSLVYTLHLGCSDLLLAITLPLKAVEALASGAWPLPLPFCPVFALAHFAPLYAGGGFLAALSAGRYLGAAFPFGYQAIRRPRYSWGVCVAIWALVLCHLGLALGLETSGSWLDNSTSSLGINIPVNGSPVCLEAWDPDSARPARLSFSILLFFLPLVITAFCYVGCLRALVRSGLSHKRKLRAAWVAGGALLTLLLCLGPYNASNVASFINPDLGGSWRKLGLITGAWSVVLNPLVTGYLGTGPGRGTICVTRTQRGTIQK

T1 sequence (O14842 whole entry): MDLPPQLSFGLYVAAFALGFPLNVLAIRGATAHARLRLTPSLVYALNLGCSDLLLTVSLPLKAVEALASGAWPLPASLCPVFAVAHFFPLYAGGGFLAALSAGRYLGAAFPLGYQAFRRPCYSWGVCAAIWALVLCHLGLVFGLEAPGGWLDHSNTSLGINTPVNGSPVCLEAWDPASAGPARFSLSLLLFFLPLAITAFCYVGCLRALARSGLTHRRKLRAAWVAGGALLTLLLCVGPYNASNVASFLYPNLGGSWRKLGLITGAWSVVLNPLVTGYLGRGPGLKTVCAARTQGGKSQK

Activity [1] | EC50 [2] [µM] | microsomal CLint [3] [µL/min/mg] | Cmax [4] [µg/mL] | Tlast [5] [h] | concentration at 8 h [6] [µg/mL] | AUC(0-t) at 8 h [7] [µg·h/mL] | solubility [8] | EC50 [9] [µM] | EC50 [10] [µM] | Activity [11] | Emax [15] [%] | fold change (FC) [16] | SMILES | Activity (Mus musculus [12]) | Activity (Mus musculus [13]) | Activity (Mus musculus [14]) [%]
Active | 7.53 | ≤ 4 | 65 | 8 | 0.062 | 186 | Soluble | > 25 | > 25 | Active | – | – | Cc1ccc(C)c(-c2cc3cc(CCC(=O)O)ccc3[nH]2)c1 | Active | Active | 163
Active | 0.681 | ≤ 4 | 10.3 | 8 | 0.189 | 9.62 | Soluble | > 25 | > 25 | Active | 32.5 | 1.16 | Cc1cc(F)ccc1-c1cc2cc(CCC(=O)O)ccc2[nH]1 | – | – | –
